The values below come from patent US12404244B2, “Pan-KIT kinase inhibitor having quinoline structure and application thereof” (Tarapeutics Science Inc., priority 2018, dated 2025).

What all share (type): cell-based
Assay [1] relates to TEL-KIT/V559D-BaF3. Nature of the assay: Proliferation of TEL-KIT/V559D-BaF3 cells (CCK-8). The conditions noted are these: Mus musculus, read-out: GI50 TEL-KIT/V559D-BaF3. The text has this:
(§1) Compounds as provided herein were further evaluated for their inhibitory effects on proliferation of cancer cells by testing their effects on growth of cancer cells. In this example the following cells were used: primary mouse B cells BaF3 (purchased from ATCC), GIST-T1 cells of the human gastrointestinal stromal tumor cell line (expressing wild-type KIT gene) (purchased from Cosmo Bio Co., Ltd. (Japan)). The present lab further constructed and used the following: mouse Tel-Kit-BaF3 (stably expressing KIT wild-type kinase), mouse Tel-Kit/T670I-BaF3 (stably expressing KIT T670I mutant kinase), mouse Tel-Kit/V559A-BaF3 (stably expressing KIT V559A mutant kinase), mouse Tel-Kit/V559D-BaF3 (stably expressing KIT V559D mutant kinase), mouse Tel-Kit/V559G-BaF3 (stably expressing KIT V559G mutant kinase), mouse Tel-Kit/V560D-BaF3 (stably expressing KIT V560D mutant kinase), mouse Tel-Kit/L576P-BaF3 (stably expressing KIT L576P mutant kinase), mouse Tel-Kit/V654A-BaF3 (stably expressing KIT V654A mutant kinase), mouse Tel-Kit/V654A/V559D-BaF3 (stably expressing KIT V654A V559D mutant kinase), mouse Tel-Kit/T670E-BaF3 (stably expressing KIT T670E mutant kinase), mouse Tel-Kit/T670I/V559D-BaF3 (stably expressing KIT T670I V559D mutant kinase), mouse Tel-Kit/S709F-BaF3 (stably expressing KIT S709F mutant kinase), mouse Tel-Kit/D816E-BaF3 (stably expressing KIT D816E mutant kinase), mouse Tel-Kit/D816H-BaF3 (stably expressing KIT D816H mutant kinase), mouse Tel-Kit/D820E-BaF3 (stably expressing KIT D820E mutant kinase), mouse Tel-Kit/D820G-BaF3 (stably expressing KIT D820G mutant kinase), mouse Tel-Kit/D820Y-BaF3 (stably expressing KIT D820Y mutant kinase), mouse Tel-Kit/N822K-BaF3 (stably expressing KIT N822K mutant kinase), mouse Tel-Kit/Y823D-BaF3 (stably expressing KIT Y823D mutant kinase), mouse Tel-Kit/A829P-BaF3 (stably expressing KIT A829P mutant kinase), GIST-T1-T670I cells of the human gastrointestinal stromal tumor cell line (expressing KIT-T670I mutant gene). The above cell lines were constructed by: amplifying respectively the sequences of human KIT and various mutant kinase regions of KIT via PCR, inserting the fragments respectively into MSCV-Puro vectors having a N-terminal TEL fragment and/or a NPM fragment and/or a TPR fragment (purchased from Clontech), transfecting mouse BaF3 cells with the vectors by means of retrovirus to obtain stably transfected cells, removing the growth factor IL-3, and thereby eventually obtaining cell lines that depend on the transferred protein KIT or various mutants of KIT. […]

In assay [2] the test system is TEL-KIT/V559G-BaF3. The assay is described as follows: Proliferation of TEL-KIT/V559G-BaF3 cells (CCK-8). The conditions noted are these: Mus musculus, read-out: GI50 TEL-KIT/V559G-BaF3.
Description: as §1

Assay [3] concerns TEL-KIT/L576P-BaF3. The assay is described as follows: Proliferation of TEL-KIT/L576P-BaF3 cells (CCK-8). As to conditions: Mus musculus, read-out: GI50 TEL-KIT/L576P-BaF3.
Description: as §1, with “gene).” for “gene). The above cell lines were constructed by: amplifying respectively the sequences of human KIT and various mutant kinase regions of KIT via PCR, inserting the fragments respectively into MSCV-Puro vectors having a N-terminal TEL fragment and/or a NPM fragment and/or a TPR fragment (purchased from Clontech), transfecting mouse BaF3 cells with the vectors by means of retrovirus to obtain stably transfected cells, removing the growth factor IL-3, and thereby eventually obtaining cell lines that depend on the transferred protein KIT or various mutants of KIT.”

Assay [4] has as its system TEL-KIT/V654A-BaF3. Nature of the assay: Proliferation of TEL-KIT/V654A-BaF3 cells (CCK-8). As to conditions: Mus musculus, read-out: GI50 TEL-KIT/V654A-BaF3.
Description: as §1

Assay [5] concerns TEL-KIT/T670E-BaF3. The assay is described as follows: Proliferation of TEL-KIT/T670E-BaF3 cells (CCK-8). The conditions noted are these: Mus musculus, read-out: GI50 TEL-KIT/T670E-BaF3.
Description: as §1

For assay [6], the system named is TEL-KIT/S709F-BaF3. The assay is described as follows: Proliferation of TEL-KIT/S709F-BaF3 cells (CCK-8). The conditions noted are these: Mus musculus, read-out: GI50 TEL-KIT/S709F-BaF3.
Description: as §1

Assay [7] concerns TEL-KIT/D816E-BaF3. Nature of the assay: Proliferation of TEL-KIT/D816E-BaF3 cells (CCK-8). The conditions noted are these: Mus musculus, read-out: GI50 TEL-KIT/D816E-BaF3.
Description: as §1

Assay [8] relates to TEL-KIT/D816H-BaF3. Nature of the assay: Proliferation of TEL-KIT/D816H-BaF3 cells (CCK-8). As to conditions: Mus musculus, read-out: GI50 TEL-KIT/D816H-BaF3.
Description: as §1

For assay [9], the system named is TEL-KIT/D820E-BaF3. The assay is described as follows: Proliferation of TEL-KIT/D820E-BaF3 cells (CCK-8). The conditions noted are these: Mus musculus, read-out: GI50 TEL-KIT/D820E-BaF3.
Description: as §1

Assay [10] has as its system TEL-KIT/D820G-BaF3. Nature of the assay: Proliferation of TEL-KIT/D820G-BaF3 cells (CCK-8). As to conditions: Mus musculus, read-out: GI50 TEL-KIT/D820G-BaF3.
Description: as §1

Assay [11] deals with TEL-KIT/Y823D-BaF3. The assay is described as follows: Proliferation of TEL-KIT/Y823D-BaF3 cells (CCK-8). The conditions noted are these: Mus musculus, read-out: GI50 TEL-KIT/Y823D-BaF3.
Description: as §1

In assay [12] the test system is TEL-KIT/A829P-BaF3. Nature of the assay: Proliferation of TEL-KIT/A829P-BaF3 cells (CCK-8). The conditions noted are these: Mus musculus, read-out: GI50 TEL-KIT/A829P-BaF3.
Description: as §1

Assay [13] deals with GIST-T1. The assay is described as follows: Proliferation of GIST-T1 cells (CCK-8). As to conditions: Homo sapiens, read-out: GI50 GIST-T1.
Description: as §1, with “gene).” for “gene). The above cell lines were constructed by: amplifying respectively the sequences of human KIT and various mutant kinase regions of KIT via PCR, inserting the fragments respectively into MSCV-Puro vectors having a N-terminal TEL fragment and/or a NPM fragment and/or a TPR fragment (purchased from Clontech), transfecting mouse BaF3 cells with the vectors by means of retrovirus to obtain stably transfected cells, removing the growth factor IL-3, and thereby eventually obtaining cell lines that depend on the transferred protein KIT or various mutants of KIT.”
(§2) The cells after incubation were detected using CCK-8 (purchased from MedChem Express, Shanghai, China) cell viability assay kit (CCK-8 may be reduced by dehydrogenase in living cells to a highly water-soluble yellow formazan product, and the amount of the resultant formazan is proportional to the number of living cells), the number of living cells were quantified with a microplate reader, and GI50 of the compounds and the control compounds were calculated (the results shown in Table 2 and Table 3).

In assay [14] the test system is GIST-T1/T670I. The assay is described as follows: Proliferation of GIST-T1/T670I cells (CCK-8). As to conditions: Homo sapiens, read-out: GI50 GIST-T1/T670I.
Description: as §1, with “gene).” for “gene). The above cell lines were constructed by: amplifying respectively the sequences of human KIT and various mutant kinase regions of KIT via PCR, inserting the fragments respectively into MSCV-Puro vectors having a N-terminal TEL fragment and/or a NPM fragment and/or a TPR fragment (purchased from Clontech), transfecting mouse BaF3 cells with the vectors by means of retrovirus to obtain stably transfected cells, removing the growth factor IL-3, and thereby eventually obtaining cell lines that depend on the transferred protein KIT or various mutants of KIT.”
as §2

Like-named read-outs stand apart in the source and are kept apart here.

Regarding `COc1cc2nccc(Oc3ccc(NC(=O)Cc4ccc(C)c(C(F)(F)F)c4)cc3)c2cc1OC` [Example 1, N-(4-((6,7-dimethoxyquinolin-4-yl)oxy)phenyl)-2-(4-methyl-3-(trifluoromethyl)phenyl)acetamide], the GI50 is 4 nM in assay [1] (72 h); below 0.3 nM in assay [2] (72 h); 2 nM in [3] (72 h); 110 nM in assay [4] (72 h); 53 nM in [5] (72 h); 11 nM in [6] (72 h). Further, the GI50 in assay [7] (72 h) stood at 9 nM; in assay [8] (72 h), 58 nM; in assay [9] (72 h), 5 nM; in [10] (72 h), 9 nM; in [11] (72 h) it was 15 nM; in [12] (72 h), 8 nM. Besides, the GI50 turned out to be 5 nM in assay [13] (GISTT1, 72 h) and 16 nM in assay [14] (GISTT1, 72 h).
For the compound `COc1cc2nccc(Oc3ccc(NC(=O)Cc4ccc(Cl)c(C(F)(F)F)c4)cc3)c2cc1OC` [Example 2, N-(4-((6,7-dimethoxyquinolin-4-yl)oxy)phenyl)-2-(4-chloro-3-(trifluoromethyl)phenyl)-acetamide], the GI50 in [1] (72 hours, CCK-8) is 6 nM; in assay [2] (72 hours, CCK-8), below 0.3 nM; in assay [3] (72 hours, CCK-8), 1 nM; in assay [4] (72 hours, CCK-8) it was 320 nM; in assay [5] (72 hours, CCK-8), 71 nM; in [6] (72 hours, CCK-8), 17 nM. In addition, the GI50 in assay [7] (72 hours, CCK-8) is 16 nM; in [8] (72 hours, CCK-8) it was 97 nM; in assay [9] (72 hours, CCK-8), 1 nM; in [10] (72 hours, CCK-8), 9 nM; in assay [11] (72 hours, CCK-8), 35 nM; in assay [12] (72 hours, CCK-8), 22 nM. In addition, the GI50 worked out at 6 nM in assay [13] (GISTT1, 72 hours, CCK-8) and 11 nM in assay [14] (GISTT1, 72 hours, CCK-8).
As to `CCN(CC)CCNC(=O)c1c(C)[nH]c(/C=C2\C(=O)Nc3ccc(F)cc32)c1C` [Sunitinib, reference compound], the GI50 in [1] (72 hours, CCK-8) was 1 nM; in assay [2] (72 hours, CCK-8), 4 nM; in [3] (72 hours, CCK-8), 6 nM; in [4] (72 hours, CCK-8) it was 5 nM; in assay [5] (72 hours, CCK-8) it was 89 nM; in assay [6] (72 hours, CCK-8), 28 nM. Further, the GI50 in [7] (72 hours, CCK-8) came to 59 nM; in assay [8] (72 hours, CCK-8), 315 nM; in [9] (72 hours, CCK-8) it was 93 nM; in [10] (72 hours, CCK-8), 389 nM; in assay [11] (72 hours, CCK-8), 704 nM; in assay [12] (72 hours, CCK-8), 180 nM. Also, the GI50 was 11 nM in assay [13] (GISTT1, 72 hours, CCK-8) and 4 nM in assay [14] (GISTT1, 72 hours, CCK-8).
